Results reported in patent publication US8951992B2, “Mycobacterium membrane protease as a target for inhibitors of intrabacterial pH homeostasis” (Cornell University, priority 2008, dated 2015).

Legend:
Format in all cases: cell-based, Mycobacterium tuberculosis
[1] = test system: Wild-type H37Rv transformed with pH-GFP; conditions: pH 4.5
[2] = test system: Rv3671c mutant in IFN-γ-activated macrophages
[3] = test system: Rv3671c mutant in IFN-γ-activated macrophages; remark: listed apart in the source
Rv3671c mutant [4] = test system: Rv3671c mutant
Rv3671c mutant [5] = test system: Rv3671c mutant; remark: listed apart in the source
Rv3671c mutant [6] = test system: Rv3671c mutant; remark: listed apart in the source
Rv3671c mutant [7] = test system: Rv3671c mutant; remark: listed apart in the source
lysX mutant = test system: lysX mutant

CC[C@@H](CO)NCCN[C@@H](CC)CO [Ethambutol]
concentrations causing a substantial decline in pHIB [1]: ≥ 8 μg/ml

Cl.N [NH4Cl]
effect on survival of the Rv3671c mutant [2]: restored | effect on pHIB of the Rv3671c mutant [3]: protected

CCCCCCCCCCCCOS(=O)(=O)[O-].[Na+] [SDS]
sensitivity of the Rv3671c mutant to SDS (Rv3671c mutant [4]): hypersensitive

N#CC(C#N)=NNc1cccc(Cl)c1 [carbonyl cyanide m-chlorophenylhydrazone]
effect on the Rv3671c mutant's survival (Rv3671c mutant [5]): further attenuated | effect on the Rv3671c mutant's pHIB (Rv3671c mutant [6]): further reduced

CC[C@H]1OC(=O)[C@H](C)[C@@H](O[C@H]2C[C@@](C)(OC)[C@@H](O)[C@H](C)O2)[C@H](C)[C@@H](O[C@@H]2O[C@H](C)C[C@H](N(C)C)[C@H]2O)[C@](C)(O)C[C@@H](C)C(=O)[C@H](C)[C@@H](O)[C@]1(C)O [erythromycin]
sensitivity of the Rv3671c mutant to the antibiotic (Rv3671c mutant [7]): hypersensitive | sensitivity of the lysX mutant to the antibiotic (lysX mutant): hypersensitive

NNC(=O)c1ccncc1 [isoniazid]
effect on Mtb's pHIB [1]: did not significantly alter pHIB

CC[C@@]1([C@@H]2O[C@@H]([C@H]3O[C@@](O)(CO)[C@H](C)C[C@@H]3C)C[C@@H]2C)CC[C@H]([C@]2(C)CC[C@]3(C[C@H](O)[C@@H](C)[C@@H]([C@@H](C)[C@@H](OC)[C@H](C)C(=O)O)O3)O2)O1 [monensin]
effect on the Rv3671c mutant's survival (Rv3671c mutant [5]): further attenuated | effect on Mtb's pHIB [1]: concentration dependent decline in pHIB | effect on the Rv3671c mutant's pHIB (Rv3671c mutant [6]): further reduced

NC(=O)c1cnccn1 [pyrazinmide]
effect on Mtb's pHIB [1]: did not significantly alter pHIB

CO[C@H]1/C=C/O[C@@]2(C)Oc3c(C)c(O)c4c(O)c(c(/C=N/N5CCN(C)CC5)c(O)c4c3C2=O)NC(=O)/C(C)=C\C=C\[C@H](C)[C@H](O)[C@@H](C)[C@@H](O)[C@@H](C)[C@H](OC(C)=O)[C@@H]1C [rifampin]
effect on Mtb's pHIB [1]: did not significantly alter pHIB | sensitivity of the Rv3671c mutant to the antibiotic (Rv3671c mutant [7]): hypersensitive | sensitivity of the lysX mutant to the antibiotic (lysX mutant): hypersensitive

[H]/N=C(/N)N[C@H]1[C@H](O)[C@@H](O)[C@H](O[C@@H]2O[C@@H](C)[C@](O)(C=O)[C@H]2O[C@@H]2O[C@@H](CO)[C@H](O)[C@@H](O)[C@@H]2NC)[C@@H](N/C(N)=N\[H])[C@@H]1O [streptomycin]
effect on Mtb's pHIB [1]: did not significantly alter pHIB
